Some test systems named below: 786-0 renal; HCC-2998 colon; LOX IMVI melanoma; NCI-H460 lung; SNB-19 CNS; SR leukemia; SW-620 colon; U251 CNS; UACC-62 melanoma.
What all share (assay): growth of human tumour cells (NCI), 48 h

The structures appear in SMILES notation.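 Dose response: 5 concentrations. Exposure: 48 h. Format: 96-well plates. Endpoint: linear interpolation; highest concentration if not reached. At the GI50, growth is halved. At the TGI there is no net growth.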

With `CNC(=O)OCc1cc2ccncc2c2c1[nH]c1ccccc12`, the TGI in the test with 786-0 renal is greater than 100 µM; with HCC-2998 colon, greater than 100 µM; in the test with LOX IMVI melanoma, greater than 100 µM; in the test with NCI-H460 lung it was greater than 100 µM; in the test with SNB-19 CNS, greater than 100 µM; with SR leukemia, greater than 33.2 µM. The TGI in the test on SW-620 colon, with U251 CNS and in the test on UACC-62 melanoma was greater than 100 µM throughout.
In the case of `COc1cc2c3c(c1OCc1ccccc1)NCCC3NCC2` (stereo unspecified), the TGI with 786-0 renal, in the test with HCC-2998 colon, in the test on LOX IMVI melanoma, with NCI-H460 lung, with SNB-19 CNS and with SR leukemia was greater than 100 µM in each case. For the same compound, the TGI in the test on SW-620 colon, with U251 CNS and with UACC-62 melanoma was greater than 100 µM each time.
Take `Cc1cn2c(/C=N/N=C(N)N)c(-c3cc(Cl)sc3Cl)nc2s1`: the GI50 was 0.887 µM in the test on 786-0 renal, 0.888 µM in the test on HCC-2998 colon, 1.74 µM in the test on NCI-H460 lung and 1.84 µM in the test on SNB-19 CNS. The TGI in the test with 786-0 renal is 1.83 µM; in the test with HCC-2998 colon it was 1.6 µM; in the test with NCI-H460 lung it was greater than 50 µM; in the test with SNB-19 CNS, greater than 50 µM.
For the compound `CCCCCCCCCCNC(=S)OCCCC`, the TGI in the test on 786-0 renal is 76.3 µM; with HCC-2998 colon, 57 µM; with LOX IMVI melanoma, 29.8 µM; in the test on NCI-H460 lung, 43.5 µM; in the test on SNB-19 CNS it was greater than 100 µM; with SR leukemia, 38 µM. The TGI with SW-620 colon stood at 35.2 µM; in the test on U251 CNS, 37.5 µM; in the test on UACC-62 melanoma it was 53.1 µM.
For the compound `NC(=O)OCC(COc1ccc(Cl)cc1)OC(=O)c1cc([N+](=O)[O-])cc([N+](=O)[O-])c1` (stereo unspecified), the TGI was greater than 100 µM in the test on 786-0 renal; greater than 100 µM in the test with HCC-2998 colon; 34.4 µM with LOX IMVI melanoma; greater than 100 µM with NCI-H460 lung; greater than 100 µM in the test on SNB-19 CNS; greater than 100 µM in the test with SR leukemia. Moreover, the TGI was 27.6 µM in the test on SW-620 colon, greater than 100 µM in the test on U251 CNS and greater than 100 µM in the test with UACC-62 melanoma.
For `CCOC(=O)/C(=C/c1ccc(Cl)cc1)N(CC)CC`, the TGI with 786-0 renal, with HCC-2998 colon, in the test with LOX IMVI melanoma, in the test with NCI-H460 lung, with SR leukemia and in the test with SW-620 colon was greater than 100 µM each time. For the same compound, the TGI in the test on U251 CNS and in the test with UACC-62 melanoma was greater than 100 µM each time.
`C/C=C/C=C\C(=O)C1c2cccc(O)c2C(=O)c2c(O)cc(C)cc21` (stereo unspecified): the TGI was found to be 3.93 µM in the test with 786-0 renal; 1.6 µM with HCC-2998 colon; 3.38 µM in the test with LOX IMVI melanoma; 1.47 µM with NCI-H460 lung; 2.5 µM with SNB-19 CNS; 2.55 µM in the test on SW-620 colon. In the test on U251 CNS, this compound returned a TGI of 1.63 µM.
Turning to `COc1cccc(N2C(=O)[C@H]3[C@H]4CC(C(C)(C)C)CC[C@H]4c4c([nH]c5ccccc45)[C@H]3C2=O)c1` (stereo partly specified), the TGI in the test with 786-0 renal was 30.1 µM; in the test on HCC-2998 colon, greater than 100 µM; in the test on LOX IMVI melanoma it was 32.7 µM; with SNB-19 CNS it was 33.9 µM; in the test on SW-620 colon, 41 µM; in the test on UACC-62 melanoma, 28.3 µM.
Consider `CCC[CH2][Ge]([CH2]CCC)([CH2]CCC)[O]C(=O)C(OC(C)=O)c1ccccc1` (stereo unspecified), for which the GI50 is 6.34 µM in the test on 786-0 renal; 0.53 µM in the test on HCC-2998 colon; 0.535 µM with LOX IMVI melanoma; 1.24 µM in the test with NCI-H460 lung; 12 µM in the test on SNB-19 CNS; 4.59 µM in the test on SW-620 colon. The GI50 in the test on U251 CNS is 1.19 µM; in the test with UACC-62 melanoma, 1.64 µM. Further, the TGI is 22.8 µM with 786-0 renal; 5.63 µM with HCC-2998 colon; 9.14 µM in the test on LOX IMVI melanoma; 20 µM in the test with NCI-H460 lung; 36.9 µM in the test on SNB-19 CNS; 20.6 µM in the test with SW-620 colon. The TGI in the test with U251 CNS worked out at 20.2 µM; with UACC-62 melanoma, 15.6 µM.
Turning to `O=C(NCCCCCCNC(=O)NC1OCC(O)C(O)C1O)NC1OCC(O)C(O)C1O` (stereo unspecified), the TGI with 786-0 renal, in the test with LOX IMVI melanoma, with NCI-H460 lung, with SR leukemia, with SW-620 colon and with U251 CNS was greater than 100 µM in each case. For the same compound, the TGI in the test with UACC-62 melanoma was greater than 100 µM.
On to `CN/N=C(/CC(=O)c1sc(-n2nc(-c3ccccc3)cc2-c2ccccc2)nc1C)C(=O)Nc1ccc(Cl)c(Cl)c1`, for which the TGI in the test on 786-0 renal, with HCC-2998 colon, with LOX IMVI melanoma, in the test with NCI-H460 lung, in the test with SNB-19 CNS and with SR leukemia was greater than 100 µM in each case. The TGI with SW-620 colon, in the test with U251 CNS and in the test on UACC-62 melanoma was greater than 100 µM each time.
As for `CO[C@]12CCC(=O)N1C=Cc1c2[nH]c2ccccc12`, the TGI in the test on 786-0 renal, in the test on HCC-2998 colon, in the test with LOX IMVI melanoma, with NCI-H460 lung, in the test on SNB-19 CNS and with SR leukemia was greater than 100 µM each time. The TGI in the test with SW-620 colon and in the test with UACC-62 melanoma was greater than 100 µM each time.
As to `C[CH2][Sn]([Cl])([CH2]C)[CH2]C`, the GI50 was 1.01 µM in the test with 786-0 renal; 0.354 µM with HCC-2998 colon; 0.386 µM in the test on LOX IMVI melanoma; 1.67 µM with NCI-H460 lung; 1.97 µM in the test on SNB-19 CNS; 0.481 µM with SR leukemia. Moreover, the GI50 was 0.57 µM in the test on SW-620 colon, 0.771 µM in the test with U251 CNS and 0.515 µM in the test on UACC-62 melanoma. The TGI with 786-0 renal was 3.63 µM; in the test with HCC-2998 colon, 1.66 µM; with LOX IMVI melanoma, 2.06 µM; in the test on NCI-H460 lung, 5.44 µM; in the test on SNB-19 CNS, 10.6 µM; in the test with SR leukemia it was 5.01 µM. Further, the TGI in the test on SW-620 colon is 10.9 µM; in the test with U251 CNS, 2.97 µM; in the test on UACC-62 melanoma, 11.5 µM.
For `CC1=C2[C@@H](c3ccccc3)C3C=CC2(c2ccccc23)N(C(=O)Nc2cccc3ccccc23)C1=O` (stereo partly specified), the TGI with 786-0 renal, in the test with HCC-2998 colon, in the test with LOX IMVI melanoma, with SNB-19 CNS, with SR leukemia and in the test on SW-620 colon was greater than 100 µM in each case. The TGI in the test with U251 CNS and with UACC-62 melanoma was greater than 100 µM each time.

For the origin of these results see PubChem BioAssay (NCI).
